Measured values: US20090318451A1, “[…] AGONISTS FOR THE TREATMENT OF PAIN” (Pfizer Inc., priority 2007, published 2009)
Read-outs that look alike come from different tables or passages of the source.

Tests used:
[1] = tested on: Capsaicin-induced hyperalgesia; assay: Capsaicin-induced hyperalgesia, static and dynamic allodynia endpoint; assay type: in vivo, rat
[2] = tested on: MIA-induced static allodynia (rats); assay: Monosodium iodoacetate (MIA)-induced static allodynia; assay type: in vivo, rat
[3] = tested on: CCI-induced static and dynamic allodynia (rats); assay: Chronic constriction injury (CCI) of sciatic nerve, static and dynamic allodynia; assay type: in vivo, rat
[4] = molecular target: T1, human Dopamine D3 receptor (Homo sapiens, UniProt P35462); assay: Inhibition via dopamine D3 receptors of forskolin-stimulated adenylate cyclase activity (cAMP, hD3CHO cells); assay type: cell-based; conditions: for functional selectivity for D3 over D2: D2 EC50 divided by D3 EC50, 10000 used where D2 EC50 >10000
T1 construct: expressed in transfected cells; host or cells: CHO (dihydrofolate reductase deficient), generated in house
T1 sequence (P35462 whole entry): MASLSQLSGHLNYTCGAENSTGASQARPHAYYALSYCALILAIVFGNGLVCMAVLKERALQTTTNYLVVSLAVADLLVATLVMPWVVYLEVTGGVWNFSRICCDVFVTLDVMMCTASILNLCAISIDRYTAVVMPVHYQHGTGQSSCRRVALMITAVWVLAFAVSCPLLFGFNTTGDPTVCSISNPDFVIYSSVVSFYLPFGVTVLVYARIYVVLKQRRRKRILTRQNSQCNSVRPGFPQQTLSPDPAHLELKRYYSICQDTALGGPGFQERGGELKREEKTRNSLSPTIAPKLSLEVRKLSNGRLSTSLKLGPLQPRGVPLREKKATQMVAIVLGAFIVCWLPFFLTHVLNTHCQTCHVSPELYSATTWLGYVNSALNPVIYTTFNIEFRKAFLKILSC

[5] = Free plasma concentration after oral dosing in pain model rats; conditions: for peak free-plasma concentration / predicted free-plasma exposure: based on the known PK profile, 0.1 mg/kg
[6] = molecular target: T2, human dopamine D2long receptor (Homo sapiens, UniProt P14416); assay: Inhibition via dopamine D2 receptors of forskolin-stimulated adenylate cyclase activity (cAMP, GH4C1/hD2L cells); assay type: cell-based
T2 construct: expressed in transfected cells; host or cells: GH4C1 rat pituitary cells
T2 sequence (P14416 whole entry): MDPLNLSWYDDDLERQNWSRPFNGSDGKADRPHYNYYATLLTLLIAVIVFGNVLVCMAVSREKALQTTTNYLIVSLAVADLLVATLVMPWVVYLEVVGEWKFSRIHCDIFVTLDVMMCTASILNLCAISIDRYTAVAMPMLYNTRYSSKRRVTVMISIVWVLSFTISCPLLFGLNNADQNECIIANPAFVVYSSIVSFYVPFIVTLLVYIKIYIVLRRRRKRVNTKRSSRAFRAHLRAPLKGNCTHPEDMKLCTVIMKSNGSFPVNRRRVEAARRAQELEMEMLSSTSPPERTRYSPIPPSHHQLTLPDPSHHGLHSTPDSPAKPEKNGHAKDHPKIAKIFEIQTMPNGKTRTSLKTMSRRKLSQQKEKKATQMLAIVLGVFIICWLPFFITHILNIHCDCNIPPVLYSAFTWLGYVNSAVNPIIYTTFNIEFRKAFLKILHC

[7] = tested on: Plantar surgery-induced static and dynamic allodynia (rats); assay: Plantar surgery model of postsurgical pain, static and dynamic allodynia; assay type: in vivo, rat
[8] = molecular target: T3, D4 dopamine receptor (Homo sapiens, UniProt P21917); assay: Functional inhibition of forskolin-stimulated cAMP accumulation in human recombinant cell lines, D4; assay type: cell-based
T3 construct: expressed in transfected cells
T3 sequence (P21917 1-419): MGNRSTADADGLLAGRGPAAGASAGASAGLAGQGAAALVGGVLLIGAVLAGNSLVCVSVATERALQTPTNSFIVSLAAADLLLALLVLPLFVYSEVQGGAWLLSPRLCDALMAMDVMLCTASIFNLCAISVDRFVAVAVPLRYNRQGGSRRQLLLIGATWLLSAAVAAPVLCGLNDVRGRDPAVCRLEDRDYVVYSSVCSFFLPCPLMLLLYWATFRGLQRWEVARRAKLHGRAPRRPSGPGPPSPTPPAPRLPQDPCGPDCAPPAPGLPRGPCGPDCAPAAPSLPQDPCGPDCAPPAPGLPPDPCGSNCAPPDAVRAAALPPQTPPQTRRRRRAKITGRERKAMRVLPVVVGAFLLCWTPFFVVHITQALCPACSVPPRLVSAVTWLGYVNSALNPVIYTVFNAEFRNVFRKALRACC

[9] = tested on: Hotplate paw withdrawal latency (rats); assay: Hotplate paw withdrawal latency; assay type: in vivo, rat
[10] = tested on: MIA-induced weight deficit (rats); assay: MIA-induced weight-bearing deficit; assay type: in vivo, rat
[11] = molecular target: D2 dopamine receptor (Homo sapiens, UniProt P14416); assay: In vitro binding (membrane preparation), human recombinant receptors, D2
D2 dopamine receptor, sequence (P14416 whole entry): as the sequence (P14416 whole entry) above

[12] = molecular target: T3, D4 dopamine receptor; assay: In vitro binding (membrane preparation), human recombinant receptors, D4
[13] = molecular target: D3 dopamine receptor (Homo sapiens, UniProt P35462); assay: In vitro binding (membrane preparation), human recombinant receptors, D3
D3 dopamine receptor, sequence (P35462 whole entry): as the sequence (P35462 whole entry) above

[14] = molecular target: D5 (Homo sapiens, UniProt P21918); assay: In vitro binding (membrane preparation), human recombinant receptors, D5
D5, sequence (P21918 whole entry): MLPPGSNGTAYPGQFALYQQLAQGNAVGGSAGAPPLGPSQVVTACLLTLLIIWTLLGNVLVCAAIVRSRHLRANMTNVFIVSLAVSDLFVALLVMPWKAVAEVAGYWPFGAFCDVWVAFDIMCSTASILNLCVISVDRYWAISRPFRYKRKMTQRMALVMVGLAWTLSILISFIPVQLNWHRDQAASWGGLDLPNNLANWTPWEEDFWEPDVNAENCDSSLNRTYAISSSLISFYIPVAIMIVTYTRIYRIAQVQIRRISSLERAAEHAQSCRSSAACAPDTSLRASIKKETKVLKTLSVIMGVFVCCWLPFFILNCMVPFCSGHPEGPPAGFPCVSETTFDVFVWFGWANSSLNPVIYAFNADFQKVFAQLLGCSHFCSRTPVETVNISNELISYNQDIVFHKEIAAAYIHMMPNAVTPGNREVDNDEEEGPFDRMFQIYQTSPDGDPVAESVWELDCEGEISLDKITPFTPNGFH

[15] = molecular target: D1 (Homo sapiens, UniProt P21728); assay: In vitro binding (membrane preparation), human recombinant receptors, D1
D1, sequence (P21728 whole entry): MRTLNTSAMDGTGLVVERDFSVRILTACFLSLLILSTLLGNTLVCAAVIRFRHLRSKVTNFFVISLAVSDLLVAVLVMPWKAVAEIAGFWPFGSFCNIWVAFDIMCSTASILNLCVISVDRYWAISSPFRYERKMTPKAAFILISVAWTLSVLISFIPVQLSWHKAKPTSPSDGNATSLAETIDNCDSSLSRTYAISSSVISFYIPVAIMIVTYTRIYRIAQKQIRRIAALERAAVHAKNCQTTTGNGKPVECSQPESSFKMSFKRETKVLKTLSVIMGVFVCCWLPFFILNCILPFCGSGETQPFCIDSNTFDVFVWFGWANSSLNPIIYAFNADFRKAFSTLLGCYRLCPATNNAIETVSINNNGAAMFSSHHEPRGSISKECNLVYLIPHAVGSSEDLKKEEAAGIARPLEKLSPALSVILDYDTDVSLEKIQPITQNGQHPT

CC(C)C[C@H](CN)CC(=O)O [pregabalin, reference compound]
effect in capsaicin model, positive control compared with Example 67 at 1 mg/kg ([1]; rat, 30 mg/kg): equivalent in magnitude

COc1cccc(C2(O)CCCCC2CN(C)C)c1 (stereo not drawn) [tramadol, reference compound]
reversal of MIA-induced static allodynia, positive control ([2]; 100 mg/kg): full reversal

N#Cc1ccc2c(c1)CCN(CCC1CCC(NC(=O)c3ccnc4ccccc34)CC1)C2 (stereo not drawn) [quinoline-4-carboxylic acid (4-[2-(6-cyano-3,4-dihydro-1H-isoquinolin-2-yl)ethyl]cyclohexyl)-amide, reference compound]
effect of 0.1 mg/kg of the compound of Example 67 on MIA allodynia after D3 antagonist ([2]; antagonist oral 3 mg/kg): abolished

CCCN1C[C@@H](c2ccc(N)nc2)OC[C@@H]1C [Example 67, 5-[(2R,5S)-5-methyl-4-propylmorpholin-2-yl]pyridin-2-amine]
Minimum Effective Dose, CCI-induced static and dynamic allodynia ([3]; oral): No effect up to 0.1 mg/kg oral
effect on CCI-induced static and dynamic allodynia ([3]; oral 0.1 mg/kg): no effects
Minimum Effective Dose, MIA-induced static allodynia ([2]; oral): 0.01 mg/kg
reversal of MIA-induced static allodynia ([2]; oral 0.1 mg/kg): full reversal
reversal of MIA-induced static allodynia ([2]; oral 0.01, 0.03 and 0.1 mg/kg): dose response in reversal of the allodynia
functional selectivity for D3 over D2 [4]: > 470 fold
Emax ([4]; D3, CHO cells, full agonist, normalised to pramipexole, read-out: % Emax): 95%
functional selectivity over D4 dopamine receptor ([4]; D3 versus D4, cAMP): 180 fold
Emax ([4]; forskolin-stimulated cAMP accumulation, (95% CI), read-out: % Emax, D3): 95%
peak free-plasma concentration / predicted free-plasma exposure ([5]; oral 0.1 mg/kg): 10 nM
peak free-plasma concentration / predicted free-plasma exposure ([5]; oral 0.1 mg/kg, listed as 5-[(2R,5S)-5-methyl-4-propylmorpholin-2-yl]pyridin-2-amine): approximately 10 nM
measured mean free Cmax for MED, MIA-induced static allodynia ([5]; rats, 0.01 mg/kg oral): 1.85 nM
free plasma concentration ([5]; rats, oral 0.01 mg/kg): 1.85 nM
free plasma concentration ([5]; rats, oral 0.03 mg/kg): 5.70 nM
free plasma concentration ([5]; rats, oral 0.1 mg/kg): 10.77 nM
EC50 [6]: > 10 µM
% Response @ 10 μM, D2 ([6]; 10 μM, response as percentage of the effect to pramipexole, (95% CI)): % Response @ 10 μM = 36 (19-56)
oral dose giving maximal effect on surgery-induced allodynia [7]: 0.1 mg/kg
reversal of surgery-induced static and dynamic allodynia ([7]; oral): dose-dependent reversal
EC50 [8]: 3.9 µM
Emax ([8]; forskolin-stimulated cAMP accumulation, (95% CI)): 92%
efficacy in hotplate model (paw withdrawal latency) ([9]; rat, oral 0.01, 0.03, 0.1 and 1.0 mg/kg, hotplate 52° C.): no efficacy
Minimum Effective Dose, hotplate paw withdrawal latency ([9]; rats, oral): No effect up to 1.0 mg/kg oral
Minimum Effective Dose, MIA-induced weight deficit ([10]; oral, single-dose study): 0.1 mg/kg oral single-dose study
efficacy on weight-bearing deficit following MIA injection ([10]; single dose 0.1 mg/kg): efficacy similar to optimal opioid treatment
IC50 [11]: > 10 µM
Ki [12]: 4.16 µM
Ki [13]: 0.215 µM
binding selectivity over D2 dopamine receptor ([13]; D3 versus D2 binding): > 46 fold
IC50 [14]: > 10 µM
Minimum Effective Dose, capsaicin-induced hyperalgesia ([1]; oral): 0.01 mg/kg oral
dose giving optimal effect in capsaicin model ([1]; rat, oral pre-dosing): 1 mg/kg
effect on capsaicin-induced static and dynamic allodynia ([1]; rat, oral pre-dosing 0.01, 0.1 and 1 mg/kg, capsaicin 1 hour after dosing): dose response
IC50 [15]: > 10 µM

CCCN1CCO[C@H](c2cccc(O)c2)C1.Cl [Example 8, R-(−)-3-(4-Propylmorpholin-2-yl)phenol hydrochloride]
EC50 [4]: 0.0076 µM
functional selectivity for D3 over D2 [4]: 1315.8 fold
